Reference: patent publication US20240368151A1, “NOVEL ERGOLINES AND METHODS OF TREATING MOOD DISORDERS” (priority 2021, published 2024)

Key:
5-HT2B receptor = 5-HT2B receptor (Homo sapiens (Human), UniProt P41595); test: FLIPR Ca^2+ flux agonist assay at 5-HT2B; format: cell-based; conditions: HEK293
In short: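 Agonist-induced calcium flux was measured on FLIPR Tetra in stable HEK293 cells for 5-HT2A and 5-HT2B, and in stable CHO cells for 5-HT1A. Cells were loaded with Fluo-4 Direct dye and 2.5 mM probenecid for 50 min at 37 °C before compound addition and fluorescence reading.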

5-HT1A receptor = 5-HT1A receptor (Homo sapiens (Human), UniProt P08908); test: FLIPR Ca^2+ flux agonist assay at 5-HT1A; format: cell-based; conditions: CHO cells
5-HT1B receptor = 5-HT1B receptor (Homo sapiens (Human), UniProt P28222); test: cAMP accumulation agonist assay at 5-HT1B; format: cell-based
Sequence of 5-HT1B receptor (P28222 whole entry, looked up): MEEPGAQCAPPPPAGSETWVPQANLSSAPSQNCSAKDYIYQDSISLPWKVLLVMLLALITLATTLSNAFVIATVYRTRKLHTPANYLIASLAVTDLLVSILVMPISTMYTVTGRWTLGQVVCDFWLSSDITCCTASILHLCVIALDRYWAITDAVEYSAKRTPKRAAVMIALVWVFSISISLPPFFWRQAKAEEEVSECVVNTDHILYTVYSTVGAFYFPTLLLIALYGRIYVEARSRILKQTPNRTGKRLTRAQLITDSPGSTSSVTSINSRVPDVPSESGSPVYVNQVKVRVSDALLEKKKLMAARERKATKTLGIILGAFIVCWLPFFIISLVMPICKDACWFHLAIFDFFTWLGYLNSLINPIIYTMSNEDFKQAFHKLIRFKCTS
Protocol: Functional Assay at 5-HT1B. Agonist activity at 5-HT1B was determined using a cAMP accumulation protocol at WuXi AppTec (Hong Kong) Limited according to their standard protocols. Briefly, stably transfected cells were plated in an OptiPlate-384 well plate, incubated at RT for 60 mins, and cAMP standard solution (800 nM, 10 μL) was added to the blank well. Then, 10 μL detection reagent was added to each well, the plate incubated for 60 mins at RT, and the plate read using EnVision.

5-HT2A receptor = 5-HT2A receptor (Homo sapiens (Human), UniProt P28223); format: cell-based; conditions: for 5-HT2A Arrestin % Act @ Max Dose / agonist type in the 5-HT2A arrestin recruitment assay, in words: beta-arrestin recruitment; for arrestin bias: potency in arrestin assay compared to Ca^2+ signaling assay: 5-HT2A arrestin vs G protein-dependent Ca^2+ assay
In short: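 PathHunter enzyme-fragment complementation in cells expressing ProLink-tagged 5-HT2A and β-arrestin–β-galactosidase fusion. Cells incubated at 37 °C before testing; recruitment read by chemiluminescence. Agonist activity expressed as % of maximal control ligand response after vehicle subtraction.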

Alpha1A receptor = Alpha1A receptor (Homo sapiens (Human), UniProt P35348); test: FLIPR Ca^2+ flux agonist assay at Alpha1A; format: cell-based
Sequence of Alpha1A receptor (P35348 whole entry, looked up): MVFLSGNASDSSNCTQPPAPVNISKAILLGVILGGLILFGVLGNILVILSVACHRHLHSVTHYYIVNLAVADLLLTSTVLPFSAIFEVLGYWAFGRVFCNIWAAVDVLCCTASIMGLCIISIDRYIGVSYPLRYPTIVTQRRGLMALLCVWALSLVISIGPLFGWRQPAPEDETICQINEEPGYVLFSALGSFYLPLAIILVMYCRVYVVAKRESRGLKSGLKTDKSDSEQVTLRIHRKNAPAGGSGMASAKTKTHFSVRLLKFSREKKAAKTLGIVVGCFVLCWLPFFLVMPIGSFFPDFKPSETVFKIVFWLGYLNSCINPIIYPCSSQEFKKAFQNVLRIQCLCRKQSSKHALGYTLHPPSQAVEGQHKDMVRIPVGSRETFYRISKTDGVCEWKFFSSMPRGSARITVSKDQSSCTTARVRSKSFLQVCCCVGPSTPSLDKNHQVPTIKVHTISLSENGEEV
Protocol: Disclosed compounds were tested for agonist activity at several adrenergic (Alpha1A and Alpha2A) and dopamine (D1 and D2) receptor subtypes using Ca^2+ flux functional assays, with the results summarized in Table 6. Selectivity for the 5-HT2A receptor over these other targets varied depending on the specific target and compound.
Functional Assays at Adrenergic and Dopamine Receptors. Agonist activity at Alpha1A, Alpha2A, D1, and D2 receptors was determined using a FLIPR Ca^2+ flux assay at WuXi AppTec (Hong Kong) Limited according to their standard protocols. Briefly, stably transfected cells expressing the receptor of interest were grown and plated in a 384 well plate and incubated at 37° C. and 5% CO2 overnight. A solution of 250 mM probenecid in 1 mL FLIPR assay buffer was prepared fresh. This was combined with a fluorescent dye (Fluo-4 Direct™) to make a final assay concentration of 2.5 mM. Compounds were diluted 1:3.16 for 10 points and 750 nL was added to a 384 well compound plate using ECHO along with 30 μL assay buffer. The fluorescent dye was then added to the assay plate along with assay buffer to a final volume of 40 μL. The cell plate was incubated for 50 min at 37° C. and 5% CO2 and placed into the FLIPR Tetra along with the compound plate. 10 μL of references and compounds were then transferred from the compound plate into the cell plate and the fluorescent signal was read.

C57BL/6 mice = test: Mouse head twitch response (HTR) assay; format: in vivo; conditions: SC; for head twitch response (HTR), in words: mice; for head twitch response (HTR), in words / # HTR at Most Efficacious Dose / Emax (95% CI): 20 min observation; for Most Efficacious Dose / # HTR at Most Efficacious Dose / Emax (95% CI): mouse HTR; for Emax (95% CI): curve fit
Protocol: Agonists of the 5-HT2A receptor are well known to induce this effect in rodents and the potency of this HTR is correlated with hallucinogenic potency in humans.
Animals. Adult male C57BL/6 mice, aged 6-8 weeks (body weight 20-25 g) were used in this experiment. Animals were housed under controlled temperatures and 12-hour light/dark cycles (lights on between 07:00-19:00 h), with ad libitum food and water. This study was carried out in strict accordance with the requirements of the Committee for the Purpose of Control and Supervision of Experiments on Animals (CPCSEA), India. All efforts were made to minimize suffering.
Drugs and Drug Administration. Compound 1 was synthesized as described above. It was administered subcutaneously (SC) dissolved in saline vehicle at a volume of 10 mL/kg. Five doses were tested, with n=6 animals/group. Doses were calculated on the basis of the freebase.
Procedure. Mice were administered one dose of the drug and immediately placed into a small open field for behavioral observation. Animals were observed continuously for 20 mins and the number of head twitches (HTs) were counted by an observer blind to the treatment condition.
Statistical Analysis. The data points shown are the mean±standard error of the mean (SEM). Analysis was performed using GraphPad Prism 6. Curves were fit using a non-linear gaussian distribution to calculate ED50 and Emax values.
Additional disclosed compounds were tested in the mouse head twitch response (HTR) assay according to the procedure described in Example 34. […] Lastly, compounds with much larger benzyl and phenethyl substituents on the amine nitrogen (e.g., 10 and 11) were low efficacy in this assay, consistent with their lower maximal efficacy in the arrestin functional assay (see Example 32).

[1] = Metabolic stability in rat liver microsomes (RLM); format: in vitro ADME; conditions: both sexes, rat, pooled rat liver microsomes, pH 7.4, NADPH

Sequence of 5-HT2B receptor (P41595 whole entry, looked up): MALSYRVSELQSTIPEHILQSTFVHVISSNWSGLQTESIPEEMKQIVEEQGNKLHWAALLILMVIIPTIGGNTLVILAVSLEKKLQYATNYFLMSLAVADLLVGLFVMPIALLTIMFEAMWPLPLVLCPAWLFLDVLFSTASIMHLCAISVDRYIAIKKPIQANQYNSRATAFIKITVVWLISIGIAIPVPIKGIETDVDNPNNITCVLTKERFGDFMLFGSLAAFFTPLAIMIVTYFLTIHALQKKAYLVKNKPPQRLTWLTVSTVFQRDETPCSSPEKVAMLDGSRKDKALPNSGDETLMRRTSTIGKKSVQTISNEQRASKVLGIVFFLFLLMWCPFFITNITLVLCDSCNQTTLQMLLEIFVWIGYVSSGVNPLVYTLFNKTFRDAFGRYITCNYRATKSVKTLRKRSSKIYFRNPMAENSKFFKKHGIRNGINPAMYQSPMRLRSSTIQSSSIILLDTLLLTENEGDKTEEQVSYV

SMILES | 5-HT2B % Act @ Max Dose (5-HT2B receptor) | 5-HT1A % Act @ Max Dose (5-HT1A receptor) | 5-HT1B % Act @ Max Dose (5-HT1B receptor) | 5-HT2A Arrestin % Act @ Max Dose (5-HT2A receptor) | agonist type in the 5-HT2A arrestin recruitment assay, in words (5-HT2A receptor) | Alpha 1A % Act @ Max Dose (Alpha1A receptor) | head twitch response (HTR), in words (C57BL/6 mice) | Most Efficacious Dose (C57BL/6 mice) | # HTR at Most Efficacious Dose (C57BL/6 mice) | Emax (95% CI) (C57BL/6 mice) | half-life at 1 μM [1] | arrestin bias: potency in arrestin assay compared to Ca^2+ signaling assay (5-HT2A receptor) | agonist efficacy at Alpha1A, in words (Alpha1A receptor)
CCCN1C[C@H](C(=O)N2[C@@H](C)C[C@@H]2C)C=C2c3cccc4[nH]cc(c34)C[C@H]21 [Compound 4, ((2S,4S)-2,4-dimethylazetidin-1-yl)((6aR,9R)-7-propyl-4,6,6a,7,8,9-hexahydroindolo[4,3-fg]quinolin-9-yl)methanone] | 87.46% | 123.1% | 96% | 116.8% | full agonists | 118.64% | less efficacious than its N-methyl counterpart compound Int11 | (0.1 mg/kg) | 4.667 | 4.034 | 12.8 min | – | –
CCN(CC)C(=O)[C@@H]1C=C2c3cccc4[nH]cc(c34)C[C@H]2N(CCc2ccccc2OC)C1 [Compound 11, (6aR,9R)-N,N-diethyl-7-(2-methoxyphenethyl)-4,6,6a,7,8,9-hexahydroindolo[4,3-fg]quinoline-9-carboxamide] | 2.5% | 57.91% | 47.01% | 54.255% | partial agonists | 28.23% | low efficacy | (3.2 mg/kg) | 12.0 | 19.79 | 1.16 min | > 50 fold | very low efficacy agonists
CCCN1C[C@H](C(=O)N(CC)CC)C=C2c3cccc4[nH]cc(c34)C[C@H]21 [Compound 1, (6aR,9R)-N,N-diethyl-7-propyl-4,6,6a,7,8,9-hexahydroindolo[4,3-fg]quinoline-9-carboxamide] | 103.75% | 95.6% | 96.6% | 128.71% | full agonists | 80.6% | induced a robust and dose-dependent HTR | (1 mg/kg) | 19.5 | 21.63 | 16.2 min | – | –
CCN(CC)C(=O)[C@@H]1C=C2c3cccc4[nH]cc(c34)C[C@H]2N(Cc2ccccc2OC)C1 [Compound 10, (6aR,9R)-N,N-diethyl-7-(2-methoxybenzyl)-4,6,6a,7,8,9-hexahydroindolo[4,3-fg]quinoline-9-carboxamide] | 2.005% | 52.96% | 87.29% | 47.06% | partial agonists | 26.56% | low efficacy | (3.2 mg/kg) | 6.5 | 7.749 | 3.4 min | > 50 fold | very low efficacy agonists
CCN(CC)C(=O)[C@@H]1C=C2c3cccc4[nH]cc(c34)C[C@H]2N(CCCF)C1 [Compound 2, (6aR,9R)-N,N-diethyl-7-(3-fluoropropyl)-4,6,6a,7,8,9-hexahydroindolo[4,3-fg]quinoline-9-carboxamide] | 101.16% | 92.42% | 89.97% | 114.55% | full agonists | 109.68% | – | (0.32 mg/kg) | 21.833 | 20.47 | 12 min | – | –
CCCN1C[C@H](C(=O)N[C@H](C)CC)C=C2c3cccc4[nH]cc(c34)C[C@H]21 [Compound 3, (6aR,9R)-N-((R)-sec-butyl)-7-propyl-4,6,6a,7,8,9-hexahydroindolo[4,3-fg]quinoline-9-carboxamide] | 94.11% | 107.6% | 98.66% | 109.57% | full agonists | 124.7% | – | (0.32 mg/kg) | 27.0 | 25.56 | 4.4 min | – | –
CCCN1C[C@H](C(=O)NC(CC)CC)C=C2c3cccc4[nH]cc(c34)C[C@H]21 [Compound 6, (6aR,9R)-N-(pentan-3-yl)-7-propyl-4,6,6a,7,8,9-hexahydroindolo[4,3-fg]quinoline-9-carboxamide] | 92.93% | 101.82% | 94.62% | 102.75% | full agonists | – | – | (1 mg/kg) | 20.5 | 23.06 | 1.66 min | – | –
